Reference: patent publication US10144715B2, “Piperazine derivatives as liver X receptor modulators” (priority 2014, dated 2018)
Where two headings read alike, the source gives them in different places.

Legend:
[1] = molecular target: Gal4 DNA binding domain fused to the LBD of LXRα in HEK293 cells (Homo sapiens (Human), UniProt Q13133); assay: LXR luciferase transcriptional reporter gene assay, agonist mode, LXRα; type: cell-based; settings: for EC50: read-out: Cell LXRα EC50
[2] = molecular target: Gal4 DNA binding domain fused to the LBD of LXRβ in HEK293 cells (Homo sapiens (Human), UniProt P55055); assay: cell-based
Gal4 DNA binding domain fused to the LBD of LXRβ in HEK293 cells, sequence (P55055 222-460 limits assumed): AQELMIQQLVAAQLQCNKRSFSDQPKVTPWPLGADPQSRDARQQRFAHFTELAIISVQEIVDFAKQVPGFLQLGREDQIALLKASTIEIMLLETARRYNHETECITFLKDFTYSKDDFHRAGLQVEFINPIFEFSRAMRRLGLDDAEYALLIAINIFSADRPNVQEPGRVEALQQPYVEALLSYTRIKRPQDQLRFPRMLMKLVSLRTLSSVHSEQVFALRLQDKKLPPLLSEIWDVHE

Gal4 DNA binding domain fused to the LBD of LXRα in HEK293 cells, sequence (Q13133 209-447): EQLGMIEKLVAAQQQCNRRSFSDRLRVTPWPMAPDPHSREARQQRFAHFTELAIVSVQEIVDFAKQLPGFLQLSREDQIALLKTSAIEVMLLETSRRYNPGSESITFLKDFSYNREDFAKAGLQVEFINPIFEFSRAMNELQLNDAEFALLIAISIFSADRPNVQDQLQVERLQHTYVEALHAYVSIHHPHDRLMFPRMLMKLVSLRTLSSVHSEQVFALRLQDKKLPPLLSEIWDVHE

| SMILES | Cell LXRα efficacy [1] | EC50 ([1]; agonist mode) | also measured |
| --- | --- | --- | --- |
| CC(C)[C@@H]1CN(c2ccc(F)c(S(C)(=O)=O)c2)CCN1c1ccc(F)c(C(F)(F)F)n1 [7-33, (R)-4-(4-fluoro-3-(methylsulfonyl)phenyl)-1-(5-fluoro-6-(trifluoromethyl)pyridin-2-yl)-2-isopropylpiperazine] | 307 (115) % | 307 nM |  |
| COC(=O)c1ccc(N2CCN(Cc3ccc(C(F)(F)F)c(Cl)c3)C(c3ccccc3)C2)cc1S(C)(=O)=O (stereo not drawn) [46-38, methyl 4-(4-(3-chloro-4-(trifluoromethyl)benzyl)-3-phenylpiperazin-1-yl)-2-(methylsulfonyl)benzoate] | 1088 (25) % | 1090 nM |  |
| CC(C)[C@@H]1CN(c2ccc(F)c(S(C)(=O)=O)c2)CCN1C(=O)OCC(F)(F)F [5-4, 2,2,2-trifluoroethyl (R)-4-(4-fluoro-3-(methylsulfonyl)phenyl)-2-isopropylpiperazine-1-carboxylate] |  |  | EC50 [2]: 732 nM |
| Cc1cnc(N2CCN(c3ccc(F)c(S(C)(=O)=O)c3)C[C@H]2C(C)C)nc1C(F)(F)F [Cpd No 37-3, (R)-2-(4-(4-fluoro-3-(methylsulfonyl)phenyl)-2-isopropylpiperazin-1-yl)-5-methyl-4-(trifluoromethyl)pyrimidine] |  |  | Cell LXRβ efficacy [2]: 11 (96) %; EC50 [2]: 11 nM |
| CC(C)[C@@H]1CN(c2cccc(S(C)(=O)=O)c2)CCN1c1ncc(Br)cn1 [7-16, (R)-5-bromo-2-(2-isopropyl-4-(3-(methylsulfonyl)phenyl)piperazin-1-yl)pyrimidine] | 1282 (85) % | 1280 nM |  |
| CC(C)[C@H]1CN(c2cccc(S(C)(=O)=O)c2)CCN1C[C@H]1CC[C@@H](C(F)(F)F)CC1 (single isomer, unassigned) [Cpd No 48-11] | 53 (101) % | 53 nM |  |
| CC(C)[C@H]1CN(c2cccc(S(C)(=O)=O)c2)CCN1CC1CCC(C(F)(F)F)NC1 (stereo partly drawn) [48-68, (2S)-2-isopropyl-4-(3-(methylsulfonyl)phenyl)-1-((6-(trifluoromethyl)piperidin-3-yl)methyl)piperazine] | 1224 (75) % |  | EC50 ([1]; Biological Test Example 2, agonist mode): 1220 nM |
| CS(=O)(=O)c1cccc(N2CCN(Cc3ccc(C(F)(F)F)nc3)C(c3ccc(Br)cc3)C2)c1 (stereo not drawn) [46-61, 2-(4-bromophenyl)-4-(3-(methylsulfonyl)phenyl)-1-((6-(trifluoromethyl)pyridin-3-yl)methyl)piperazine] |  | > 20000 nM |  |
| COC(=O)c1cnc(N2CCN(c3ccc(F)c(S(=O)(=O)N(C)Cc4ccc(OC)cc4)c3)C[C@H]2C(C)C)nc1C(F)(F)F [9-3, methyl (R)-2-(4-(4-fluoro-3-(N-(4-methoxybenzyl)-N-methylsulfamoyl)phenyl)-2-isopropylpiperazin-1-yl)-4-(trifluoromethyl)pyrimidine-5-carboxylate] | 951 (50) % | 951 nM |  |
| CC(C)[C@@H]1CN(c2ccc(F)c(S(C)(=O)=O)c2)CCN1C(=O)OC1CC(F)(F)C1(F)F (stereo partly drawn) [Cpd No 5-1, 2,2,3,3-tetrafluorocyclobutyl (2R)-4-(4-fluoro-3-(methylsulfonyl)phenyl)-2-isopropylpiperazine-1-carboxylate] |  |  | EC50 [2]: 272 nM |
| Cc1nc(N2CCN(c3ccc(F)c(S(C)(=O)=O)c3)C[C@H]2C(C)(C)O)ccc1C(F)(F)F [10-10, (S)-2-(4-(4-fluoro-3-(methylsulfonyl)phenyl)-1-(6-methyl-5-(trifluoromethyl)pyridin-2-yl)piperazin-2-yl)propan-2-ol] | 13605 (107) % | 13600 nM |  |
| CS(=O)(=O)c1cccc(N2CCN(C[C@H]3CCC[C@@H](C(F)(F)F)C3)[C@@H](c3ccc(F)cc3)C2)c1 [48-42, (S)-2-(4-fluorophenyl)-4-(3-(methylsulfonyl)phenyl)-1-(((1S,3R)-3-(trifluoromethyl)cyclohexyl)methyl)piperazine] |  | > 20000 nM |  |
| Cc1nc(N2CCN(c3ccc(F)c(S(C)(=O)=O)c3)C[C@@H]2C(C)(C)O)ccc1C(F)(F)F [10-9, (R)-2-(4-(4-fluoro-3-(methylsulfonyl)phenyl)-1-(6-methyl-5-(trifluoromethyl)pyridin-2-yl)piperazin-2-yl)propan-2-ol] |  | > 20000 nM |  |
